The source made the active and inactive calls. The calls are words filed in the database; no cut-off is given here.
Legend:
[1] = target: Mitogen-activated protein kinase 1 (Homo sapiens) (UniProt P28482); assay: Inhibition of MAPK1(h) at 10.0 µM in the Eurofins Kinase panel; conditions: Compound concentration 10.0 uM
[2] = target: Serine/threonine-protein kinase Nek6 (Homo sapiens) (UniProt Q9HC98); assay: Inhibition of NEK6(h) at 10.0 µM in the Eurofins Kinase panel; conditions: Compound concentration 10.0 uM
[3] = target: Epithelial discoidin domain-containing receptor 1 (Homo sapiens) (UniProt Q08345); assay: Inhibition of DDR1(h) at 10.0 µM in the Eurofins Kinase panel; conditions: Compound concentration 10.0 uM
[4] = target: Serine/threonine-protein kinase 35 (Homo sapiens) (UniProt Q8TDR2); assay: Inhibition of CLIK1(h) at 10.0 µM in the Eurofins Kinase panel; conditions: Compound concentration 10.0 uM
Vasopressin V2 receptor = Vasopressin V2 receptor (Homo sapiens, UniProt P30518); assay: Radiometric AVPR2 binding assay (Eurofins #287610)
[5] = target: 5-hydroxytryptamine receptor 2B (Homo sapiens) (UniProt P41595); conditions: Compound concentration 10.0 uM
5-hydroxytryptamine receptor 2B (Homo sapiens), sequence (P41595 whole entry): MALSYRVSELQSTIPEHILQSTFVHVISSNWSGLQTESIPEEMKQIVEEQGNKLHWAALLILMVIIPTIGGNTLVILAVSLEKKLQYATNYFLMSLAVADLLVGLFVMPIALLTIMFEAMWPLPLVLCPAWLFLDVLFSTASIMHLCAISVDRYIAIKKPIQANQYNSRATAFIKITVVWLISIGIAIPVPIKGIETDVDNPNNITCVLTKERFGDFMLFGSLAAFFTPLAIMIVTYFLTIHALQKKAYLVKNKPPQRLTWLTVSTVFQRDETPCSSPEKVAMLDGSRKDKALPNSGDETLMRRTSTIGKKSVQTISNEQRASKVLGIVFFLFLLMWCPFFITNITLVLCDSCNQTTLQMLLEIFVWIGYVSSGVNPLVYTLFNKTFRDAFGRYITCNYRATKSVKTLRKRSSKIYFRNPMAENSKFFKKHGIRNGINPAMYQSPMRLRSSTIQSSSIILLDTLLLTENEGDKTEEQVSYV

[6] = target: Mitogen-activated protein kinase kinase kinase 21 (Homo sapiens) (UniProt Q5TCX8); assay: Inhibition of MLK4(h) at 10.0 µM in the Eurofins Kinase panel; conditions: Compound concentration 10.0 uM
Mitogen-activated protein kinase kinase kinase 21 (Homo sapiens), sequence (Q5TCX8 whole entry): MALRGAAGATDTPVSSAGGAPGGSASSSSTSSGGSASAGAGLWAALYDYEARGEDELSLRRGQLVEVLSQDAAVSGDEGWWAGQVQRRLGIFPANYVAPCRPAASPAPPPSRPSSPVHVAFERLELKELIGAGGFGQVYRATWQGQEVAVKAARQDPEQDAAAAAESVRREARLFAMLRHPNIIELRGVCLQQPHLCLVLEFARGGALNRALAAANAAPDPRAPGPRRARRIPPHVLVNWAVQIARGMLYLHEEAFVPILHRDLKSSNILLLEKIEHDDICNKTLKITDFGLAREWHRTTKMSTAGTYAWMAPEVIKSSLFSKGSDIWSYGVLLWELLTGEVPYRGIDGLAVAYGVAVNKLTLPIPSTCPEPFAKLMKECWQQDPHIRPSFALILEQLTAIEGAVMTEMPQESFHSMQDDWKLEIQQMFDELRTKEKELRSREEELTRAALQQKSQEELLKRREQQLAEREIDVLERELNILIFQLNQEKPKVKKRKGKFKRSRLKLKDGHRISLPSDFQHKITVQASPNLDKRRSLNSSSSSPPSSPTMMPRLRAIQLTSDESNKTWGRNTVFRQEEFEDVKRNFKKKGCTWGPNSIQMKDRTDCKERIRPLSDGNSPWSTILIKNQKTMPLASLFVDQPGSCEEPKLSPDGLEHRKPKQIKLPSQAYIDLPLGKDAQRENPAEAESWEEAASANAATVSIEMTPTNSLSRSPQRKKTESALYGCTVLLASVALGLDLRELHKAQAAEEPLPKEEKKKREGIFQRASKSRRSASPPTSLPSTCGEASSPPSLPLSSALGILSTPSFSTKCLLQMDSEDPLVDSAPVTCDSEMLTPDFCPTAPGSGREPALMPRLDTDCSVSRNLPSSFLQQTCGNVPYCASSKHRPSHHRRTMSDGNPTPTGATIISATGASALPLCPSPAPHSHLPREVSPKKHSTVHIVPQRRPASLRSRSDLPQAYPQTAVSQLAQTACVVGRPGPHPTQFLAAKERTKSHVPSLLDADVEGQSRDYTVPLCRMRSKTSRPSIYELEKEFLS

[7] = target: B2 bradykinin receptor (Homo sapiens) (UniProt P30411); conditions: Compound concentration 10.0 uM
[8] = target: Mitogen-activated protein kinase 10 (Homo sapiens) (UniProt P53779); assay: Inhibition of JNK3(h) at 10.0 µM in the Eurofins Kinase panel; conditions: Compound concentration 10.0 uM
[9] = target: Misshapen-like kinase 1 (Homo sapiens) (UniProt Q8N4C8); assay: Inhibition of MINK(h) at 10.0 µM in the Eurofins Kinase panel; conditions: Compound concentration 10.0 uM
[10] = target: Tyrosine-protein kinase Lyn (Homo sapiens) (UniProt P07948); assay: Inhibition of Lyn(h) at 10.0 µM in the Eurofins Kinase panel; conditions: Compound concentration 10.0 uM
[11] = target: Aurora kinase A (Homo sapiens) (UniProt O14965); assay: Inhibition of Aurora-A(h) at 10.0 µM in the Eurofins Kinase panel; conditions: Compound concentration 10.0 uM
Aurora kinase A (Homo sapiens), sequence (O14965 whole entry): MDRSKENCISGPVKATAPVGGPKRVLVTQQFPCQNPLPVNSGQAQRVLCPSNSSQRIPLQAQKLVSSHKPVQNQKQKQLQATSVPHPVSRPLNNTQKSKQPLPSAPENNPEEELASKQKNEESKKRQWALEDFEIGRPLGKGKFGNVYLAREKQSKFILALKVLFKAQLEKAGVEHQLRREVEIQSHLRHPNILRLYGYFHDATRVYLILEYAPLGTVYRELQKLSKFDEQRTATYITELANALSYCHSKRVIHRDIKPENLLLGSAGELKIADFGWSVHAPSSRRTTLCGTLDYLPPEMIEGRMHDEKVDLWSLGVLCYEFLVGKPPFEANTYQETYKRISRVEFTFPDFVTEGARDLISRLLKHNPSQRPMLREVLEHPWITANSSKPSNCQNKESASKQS

[12] = target: Protein-tyrosine kinase 2-beta (Homo sapiens) (UniProt Q14289); assay: Inhibition of Pyk2(h) at 10.0 µM in the Eurofins Kinase panel; conditions: Compound concentration 10.0 uM
[13] = target: Serine/threonine-protein kinase mTOR (Homo sapiens) (UniProt P42345); assay: Inhibition of mTOR(h) at 10.0 µM in the Eurofins Kinase panel; conditions: Compound concentration 10.0 uM
[14] = target: Tau-tubulin kinase 1 (Homo sapiens) (UniProt Q5TCY1); assay: Inhibition of TTBK1(h) at 10.0 µM in the Eurofins Kinase panel; conditions: Compound concentration 10.0 uM
Tau-tubulin kinase 1 (Homo sapiens), sequence (Q5TCY1 whole entry): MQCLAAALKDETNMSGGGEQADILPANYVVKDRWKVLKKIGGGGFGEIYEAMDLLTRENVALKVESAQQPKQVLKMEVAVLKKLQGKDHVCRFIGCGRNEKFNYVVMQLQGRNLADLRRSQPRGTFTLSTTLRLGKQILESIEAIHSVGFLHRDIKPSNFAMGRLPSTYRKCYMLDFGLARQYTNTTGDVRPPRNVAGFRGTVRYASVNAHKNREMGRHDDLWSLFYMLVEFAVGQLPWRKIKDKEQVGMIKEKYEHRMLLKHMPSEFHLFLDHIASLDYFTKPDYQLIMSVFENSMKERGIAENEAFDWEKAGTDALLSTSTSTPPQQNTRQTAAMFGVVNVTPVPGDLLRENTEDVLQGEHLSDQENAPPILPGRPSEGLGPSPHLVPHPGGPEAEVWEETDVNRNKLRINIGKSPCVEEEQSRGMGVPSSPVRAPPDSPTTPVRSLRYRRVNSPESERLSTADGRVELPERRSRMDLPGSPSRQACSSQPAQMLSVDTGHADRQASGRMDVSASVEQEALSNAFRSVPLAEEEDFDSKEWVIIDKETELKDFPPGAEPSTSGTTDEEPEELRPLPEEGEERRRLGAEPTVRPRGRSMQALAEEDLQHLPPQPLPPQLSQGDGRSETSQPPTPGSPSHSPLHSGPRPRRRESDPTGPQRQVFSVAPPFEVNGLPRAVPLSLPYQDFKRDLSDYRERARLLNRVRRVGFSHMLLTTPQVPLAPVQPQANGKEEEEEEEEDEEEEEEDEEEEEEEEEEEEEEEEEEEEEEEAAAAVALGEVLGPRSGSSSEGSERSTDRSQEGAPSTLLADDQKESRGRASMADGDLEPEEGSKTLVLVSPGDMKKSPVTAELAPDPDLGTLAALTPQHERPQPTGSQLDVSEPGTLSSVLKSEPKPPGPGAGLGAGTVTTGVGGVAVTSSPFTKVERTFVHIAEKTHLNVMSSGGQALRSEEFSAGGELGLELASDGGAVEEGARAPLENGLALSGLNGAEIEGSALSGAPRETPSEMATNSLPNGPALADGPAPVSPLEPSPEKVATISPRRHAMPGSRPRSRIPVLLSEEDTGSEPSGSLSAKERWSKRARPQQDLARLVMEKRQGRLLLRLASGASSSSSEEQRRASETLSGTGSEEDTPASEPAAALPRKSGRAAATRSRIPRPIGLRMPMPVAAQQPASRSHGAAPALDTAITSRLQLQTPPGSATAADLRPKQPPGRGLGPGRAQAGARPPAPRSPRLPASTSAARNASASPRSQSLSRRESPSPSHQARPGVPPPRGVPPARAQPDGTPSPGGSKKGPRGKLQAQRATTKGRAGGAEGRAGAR

[15] = target: Mitogen-activated protein kinase kinase kinase 9 (Homo sapiens) (UniProt P80192); assay: Inhibition of MLK1(h) at 10.0 µM in the Eurofins Kinase panel; conditions: Compound concentration 10.0 uM
[16] = target: Serine/threonine-protein kinase 16 (Homo sapiens) (UniProt O75716); assay: Inhibition of STK16(h) at 10.0 µM in the Eurofins Kinase panel; conditions: Compound concentration 10.0 uM
[17] = target: Tyrosine-protein kinase Lck (Homo sapiens) (UniProt P06239); assay: Inhibition of Lck(h) activated at 10.0 µM in the Eurofins Kinase panel; conditions: Compound concentration 10.0 uM
[18] = target: CDC7/Cyclin B1 (Homo sapiens) (UniProt P14635+O00311); assay: Inhibition of Cdc7/cyclinB1(h) at 10.0 µM in the Eurofins Kinase panel; format: protein-complex assay; conditions: Compound concentration 10.0 uM
[19] = target: Delta-type opioid receptor (Homo sapiens) (UniProt P41143); conditions: Compound concentration 10.0 uM
Delta-type opioid receptor (Homo sapiens), sequence (P41143 whole entry): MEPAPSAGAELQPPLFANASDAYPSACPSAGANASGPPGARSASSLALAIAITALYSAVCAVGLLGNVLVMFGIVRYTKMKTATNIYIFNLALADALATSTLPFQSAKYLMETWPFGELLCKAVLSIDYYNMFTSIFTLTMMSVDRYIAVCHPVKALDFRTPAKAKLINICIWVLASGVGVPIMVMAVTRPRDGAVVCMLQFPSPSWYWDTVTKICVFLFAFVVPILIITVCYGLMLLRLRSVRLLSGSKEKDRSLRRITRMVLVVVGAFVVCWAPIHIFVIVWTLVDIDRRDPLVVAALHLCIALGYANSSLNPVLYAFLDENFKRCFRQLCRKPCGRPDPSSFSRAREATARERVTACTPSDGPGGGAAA

[20] = target: Serine/threonine-protein kinase 25 (Homo sapiens) (UniProt O00506); assay: Inhibition of STK25(h) at 10.0 µM in the Eurofins Kinase panel; conditions: Compound concentration 10.0 uM
[21] = target: Tyrosine-protein kinase ITK/TSK (Homo sapiens) (UniProt Q08881); assay: Inhibition of Itk(h) at 10.0 µM in the Eurofins Kinase panel; conditions: Compound concentration 10.0 uM
[22] = target: Casein kinase I isoform delta (Homo sapiens) (UniProt P48730); assay: Inhibition of CK1delta(h) at 10.0 µM in the Eurofins Kinase panel; conditions: Compound concentration 10.0 uM
[23] = target: Sigma intracellular receptor 2 (Homo sapiens) (UniProt Q5BJF2); conditions: Compound concentration 10.0 uM
Sigma intracellular receptor 2 (Homo sapiens), sequence (Q5BJF2 whole entry): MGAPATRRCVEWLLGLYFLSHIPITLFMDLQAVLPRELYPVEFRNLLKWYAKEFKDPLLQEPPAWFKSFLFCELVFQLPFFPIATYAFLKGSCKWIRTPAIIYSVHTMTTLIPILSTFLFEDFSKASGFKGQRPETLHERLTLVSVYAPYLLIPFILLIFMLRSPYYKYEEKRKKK

[24] = target: Calcium/calmodulin-dependent protein kinase type 1 (Homo sapiens) (UniProt Q14012); assay: Inhibition of CaMKI(h) at 10.0 µM in the Eurofins Kinase panel; conditions: Compound concentration 10.0 uM
[25] = target: Mast/stem cell growth factor receptor Kit (Homo sapiens) (UniProt P10721); assay: Inhibition of cKit(h) at 10.0 µM in the Eurofins Kinase panel; conditions: Compound concentration 10.0 uM
[26] = target: Protein kinase C gamma type (Homo sapiens) (UniProt P05129); assay: Inhibition of PKCgamma(h) at 10.0 µM in the Eurofins Kinase panel; conditions: Compound concentration 10.0 uM
[27] = target: Myotonin-protein kinase (Homo sapiens) (UniProt Q09013); assay: Inhibition of DMPK(h) at 10.0 µM in the Eurofins Kinase panel; conditions: Compound concentration 10.0 uM
[28] = target: Serine/threonine-protein kinase Nek5 (Homo sapiens) (UniProt Q6P3R8); assay: Inhibition of NEK5(h) at 10.0 µM in the Eurofins Kinase panel; conditions: Compound concentration 10.0 uM
[29] = target: Receptor tyrosine-protein kinase erbB-4 (Homo sapiens) (UniProt Q15303); assay: Inhibition of ErbB4(h) at 10.0 µM in the Eurofins Kinase panel; conditions: Compound concentration 10.0 uM
[30] = target: Mitogen-activated protein kinase 8 (Homo sapiens) (UniProt P45983); assay: Inhibition of JNK1alpha1(h) at 10.0 µM in the Eurofins Kinase panel; conditions: Compound concentration 10.0 uM
[31] = target: Casein kinase I isoform epsilon (Homo sapiens) (UniProt P49674); assay: Inhibition of CK1epsilon(h) at 10.0 µM in the Eurofins Kinase panel; conditions: Compound concentration 10.0 uM
[32] = target: cAMP-dependent protein kinase (PKA) (Homo sapiens) (UniProt P22694+P17612+P22612); assay: Inhibition of PKA(h) at 10.0 µM in the Eurofins Kinase panel; format: protein assay; conditions: Compound concentration 10.0 uM
[33] = target: Histamine H1 receptor (Homo sapiens) (UniProt P35367); conditions: Compound concentration 10.0 uM
[34] = target: 5-hydroxytryptamine receptor 6 (Homo sapiens) (UniProt P50406); conditions: Compound concentration 10.0 uM
5-hydroxytryptamine receptor 6 (Homo sapiens), sequence (P50406 whole entry): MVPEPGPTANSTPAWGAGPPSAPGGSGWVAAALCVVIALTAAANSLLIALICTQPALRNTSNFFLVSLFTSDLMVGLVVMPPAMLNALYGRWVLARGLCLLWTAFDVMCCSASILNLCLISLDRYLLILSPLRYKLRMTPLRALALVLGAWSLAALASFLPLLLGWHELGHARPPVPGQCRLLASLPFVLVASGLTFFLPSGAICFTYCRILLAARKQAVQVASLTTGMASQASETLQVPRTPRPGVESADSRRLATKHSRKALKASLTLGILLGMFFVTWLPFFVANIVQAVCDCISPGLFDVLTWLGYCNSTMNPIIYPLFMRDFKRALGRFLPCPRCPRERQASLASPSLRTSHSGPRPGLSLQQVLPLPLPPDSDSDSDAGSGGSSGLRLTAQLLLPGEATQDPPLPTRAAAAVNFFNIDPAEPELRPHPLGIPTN

[35] = target: Mitogen-activated protein kinase kinase kinase 5 (Homo sapiens) (UniProt Q99683); assay: Inhibition of ASK1(h) at 10.0 µM in the Eurofins Kinase panel; conditions: Compound concentration 10.0 uM
[36] = target: cGMP-dependent protein kinase 2 (Homo sapiens) (UniProt Q13237); assay: Inhibition of PRKG2(h) at 10.0 µM in the Eurofins Kinase panel; conditions: Compound concentration 10.0 uM
[37] = target: Leucine-rich repeat serine/threonine-protein kinase 2 (Homo sapiens) (UniProt Q5S007); assay: Inhibition of LRRK2(h) at 10.0 µM in the Eurofins Kinase panel; conditions: Compound concentration 10.0 uM
[38] = target: DNA-dependent protein kinase catalytic subunit (Homo sapiens) (UniProt P78527); assay: Inhibition of DNA-PK(h) at 10.0 µM in the Eurofins Kinase panel; conditions: Compound concentration 10.0 uM
[39] = target: Delta-type opioid receptor (Homo sapiens) (UniProt P41143); conditions: Compound concentration 10.0 uM; remark: listed apart in the source

| Structure (SMILES) | inhibition [1] | inhibition [2] | inhibition [3] | inhibition [4] | Ki (Vasopressin V2 receptor) | inhibition [5] | inhibition [6] | inhibition [7] | inhibition [8] | inhibition [9] | inhibition [10] | inhibition [11] | inhibition [12] | inhibition [13] | inhibition [14] | inhibition [15] | inhibition [16] | inhibition [17] | inhibition [18] | inhibition [19] | further results |
| --- | --- | --- | --- | --- | --- | --- | --- | --- | --- | --- | --- | --- | --- | --- | --- | --- | --- | --- | --- | --- | --- |
| O=c1n(Cc2cncn2-c2cccc(Cl)c2)nc(-c2ccc(Cl)cc2)n1C[C@H](O)C(F)(F)F | -0.83% | 5.32% | 0.92% | 7.34% | > 10 µM (not active) | 7.98% | 8.45% | -10% | 13.2% | 5.6% | -1.91% | 12.7% | 3.57% | 5.25% | -6.92% | -1.25% | -0.13% | 2.09% | 3.68% | 12.4% | inhibition [20]: 6.35%; inhibition [21]: -2.65%; inhibition [22]: -5.22%; inhibition [23]: 9.61%; inhibition [24]: -4.98%; inhibition [25]: 7.72%; inhibition [26]: -1.26%; inhibition [27]: 4.48%; inhibition [28]: 8.71%; inhibition [29]: -8.65%; inhibition [30]: -1.22%; inhibition [31]: 4.45%; inhibition [32]: 2.56%; inhibition [33]: 9%; inhibition [34]: 1.09%; inhibition [35]: -1.47%; inhibition [36]: -3.28%; inhibition [37]: 10.3%; inhibition [38]: -5.25%; inhibition [39]: 2% |
| C[C@H](O)c1nc(Cn2nc(-c3ccc(Cl)cc3)n(C[C@H](O)C(F)(F)F)c2=O)nn1-c1cccc(Cl)c1 [PECAVAPTAN] | 7.33% | 4.93% | 7.3% | 9.3% | 0.0006 µM (active) | 13.1% | 6.1% | 1% | 0.72% | 5.2% | -5.89% | 11.2% | -1.95% | -1.45% | -7.82% | 3.5% | 4.07% | -0.21% | 9.78% | 15.4% | inhibition [20]: 9.04%; inhibition [21]: -7.19%; inhibition [22]: -3.11%; inhibition [23]: 27.7%; inhibition [24]: -5.17%; inhibition [25]: 4.28%; inhibition [26]: 3.24%; inhibition [27]: 12.7%; inhibition [28]: 6.17%; inhibition [29]: -4.41%; inhibition [30]: -3.82%; inhibition [31]: 1.26%; inhibition [32]: -3.46%; inhibition [33]: -1%; inhibition [34]: 17.4%; inhibition [35]: -8.63%; inhibition [36]: -2.94%; inhibition [37]: 5.14%; inhibition [38]: -4.2%; inhibition [39]: 4% |

From ChEMBL document CHEMBL5463729, “Data for DCP probe BAY 1753011” (2023)
